Results: article PMC5601486, “Identification of 4-phenylquinolin-2(1H)-one as a specific allosteric inhibitor of Akt” (Scientific Reports, 2017)

Tests used:
[1] = system: MAK; test: KINOMEscan; details: 50000 nM
Method: KINOMEscan™ selectivity screen
(§1) The assay was perfor med at DiscoveRx Corporation according the methods published previously5. Briefly, Kinase-tagged T7 phage strains were grown in parallel in an E. coli host derived from the BL21 strain. E. coli were grown to log-phase and infected with T7 phage from a frozen stock and incubated with shaking at 32°C until lysis (90-150 minutes). The kinases were produced in HEK-293 cells and subsequently tagged with DNA for qPCR detection. Streptavidin-coated magnetic beads were treated with biotinylated small molecule ligands to generate affinity resins for kinase
(§2) inhibitor or DMSO control was performed in polypropylene 384-well plates for 1 hr at room temperature. After wash with PBS buffer containing 0.05% Tween 20, the beads were incubated in elution buffer (PBS containing 0.05 % Tween 20 and 0.5 μM non-biotinylated affinity ligand) for 30 minutes at room temperature. The kinase concentration in the eluates was measured by qPCR.

[2] = system: ULK3; test: KINOMEscan; details: 50000 nM
Method: KINOMEscan™ selectivity screen
as §1, §2

[3] = system: EGFR(L747-S752del, P753S); test: KINOMEscan; details: 50000 nM
Method: (§3) Briefly, Kinase-tagged T7 phage strains were grown in parallel in an E. coli host derived from the BL21 strain. E. coli were grown to log-phase and infected with T7 phage from a frozen stock and incubated with shaking at 32°C until lysis (90-150 minutes). The kinases were produced in HEK-293 cells and subsequently tagged with DNA for qPCR detection. Streptavidin-coated magnetic beads were treated with biotinylated small molecule ligands to generate affinity resins for kinase
as §2

[4] = system: SGK; test: KINOMEscan; details: 50000 nM
Method: KINOMEscan™ selectivity screen
as §1, §2

[5] = system: MAST1; test: KINOMEscan; details: 50000 nM
Method: KINOMEscan™ selectivity screen
as §1, §2

[6] = system: RET; test: KINOMEscan; details: 50000 nM
Method: KINOMEscan™ selectivity screen
as §1, §2

[7] = system: ACVR2B; test: KINOMEscan; details: 50000 nM
Method: KINOMEscan™ selectivity screen
as §1, §2

[8] = system: ABL1(H396P)-phosphorylated; test: KINOMEscan; details: 50000 nM
Method: KINOMEscan™ selectivity screen
as §1, §2

[9] = system: MET(M1250T); test: KINOMEscan; details: 50000 nM
Method: KINOMEscan™ selectivity screen
(§4) The assay was perfor med at DiscoveRx Corporation according the methods published previously5. […] The kinases were produced in HEK-293 cells and subsequently tagged with DNA for qPCR detection. Streptavidin-coated magnetic beads were treated with biotinylated small molecule ligands to generate affinity resins for kinase
as §2

[10] = system: EGFR(G719S); test: KINOMEscan; details: 50000 nM
Method: KINOMEscan™ selectivity screen
as §1, §2

[11] = system: YSK4; test: KINOMEscan; details: 50000 nM
Method: KINOMEscan™ selectivity screen
as §1, §2

[12] = system: EGFR(L747-T751del,Sins); test: KINOMEscan; details: 50000 nM
Method: KINOMEscan™ selectivity screen
as §3, §2

[13] = system: SRPK2; test: KINOMEscan; details: 50000 nM
Method: KINOMEscan™ selectivity screen
as §4, §2

[14] = system: JNK3; test: KINOMEscan; details: 50000 nM
Method: KINOMEscan™ selectivity screen
as §1, §2

[15] = system: LZK; test: KINOMEscan; details: 50000 nM
Method: KINOMEscan™ selectivity screen
as §3, §2

[16] = system: PDPK1; test: KINOMEscan; details: 50000 nM
Method: KINOMEscan™ selectivity screen
as §1, §2

[17] = system: NEK5; test: KINOMEscan; details: 50000 nM
Method: KINOMEscan™ selectivity screen
as §1, §2

[18] = system: BMPR2; test: KINOMEscan; details: 50000 nM
Method: KINOMEscan™ selectivity screen
as §1, §2

[19] = system: ACVR2A; test: KINOMEscan; details: 50000 nM
Method: KINOMEscan™ selectivity screen
as §1, §2

[20] = system: T1, Akt; test: In vitro phosphorylation of Akt S473 by MAPKAP kinase 2; type: biochemical; details: inactive Akt, PE/PC/PS/PIP3 vesicles
T1 construct: purchased Millipore 14-279

[21] = system: T2, PFPK5(P.falciparum); test: KINOMEscan; type: binding; details: 50000 nM
T2 construct: purchased DiscoveRx KINOMEscan

[22] = system: T3, PDK1; test: ADP-Glo kinase assay; type: biochemical; details: 50 µM
T3 construct: purchased Promega V2761
Method: Elisa Assay for phosphorylation of Akt
Neuro 2A cells in 48-well plates were incubated with the inhibitor for 30 minutes at 37°C followed by IGF stimulation for 30 min. Cells were lysed and subjected to Elisa assay using an Akt (S473) InstantOne Elisa kit (ThermoFisher Scientific, # 8586042-11) in accordance with manufacturer ’s instruction.
An ADP-GloTM kinase assay kit (Promega, # V9101) was used to measure the activity of PDK1 or SGK1 in accordance with the manufacturer’s instructions. For PDK1 assay, the reaction mixture included 5 µM ATP, 50 µM inhibitor, 100 ng recombinant PDK1 and 2 µg PDKtide substrate (Promega, #V2761) prior to the addition of the ADP-Glo reagents. For SGK1, 5 µM ATP, 50 µM inhibitor, 10 ng SGK1 and 1 µg Akt substrate peptide (Promega, #V2911) were used. Staurosporine at concentration between 0.4 and 4,000 nM or the SGK1 inhibitor GSK-650394 (Tocris Bioscience) between 7 and 2,000 nM were used as controls for PDK1 or SGK1 assay respectively. For PI3K assay, 50 µM ATP, 50 µM inhibitor, 100 ng recombinant PI3 kinase (SignalChem, Richmond, Canada, # P27-10H-05) and 1.5 mg/mL multilamellar phospholipid vesicles containing PC/PE/PS/PIP2 (at mass ratio of 1/0.5/0.2/0.1) were used. Inhibitor blanks as well as LY-294002 between 78 and […]

[23] = system: NEK1; test: KINOMEscan; details: 50000 nM
Method: as §3, §2

[24] = system: CSK; test: KINOMEscan; details: 50000 nM
Method: KINOMEscan™ selectivity screen
as §1, §2

[25] = system: PIM2; test: KINOMEscan; details: 50000 nM
Method: KINOMEscan™ selectivity screen
as §1, §2

[26] = system: ERK3; test: KINOMEscan; details: 50000 nM
Method: KINOMEscan™ selectivity screen
as §3, §2

[27] = system: EIF2AK1; test: KINOMEscan; details: 50000 nM
Method: KINOMEscan™ selectivity screen
as §1, §2

[28] = system: SYK; test: KINOMEscan; details: 50000 nM
Method: KINOMEscan™ selectivity screen
as §1, §2

[29] = system: FLT3(ITD,D835V); test: KINOMEscan; details: 50000 nM
Method: KINOMEscan™ selectivity screen
as §1, §2

## Oc1cc(-c2ccccc2)c2ccccc2n1 [G7, 4-phenylquinolin-2(1H)-one]
[1]
  Percent Control: 77%
[2]
  Percent Control: 86%
[3]
  Percent Control: 84%
[4]
  Percent Control: 66%
[5]
  Percent Control: 100%
[6]
  Percent Control: 51%
[7]
  Percent Control: 100%
[8]
  Percent Control: 66%
[9]
  Percent Control: 96%
[10]
  Percent Control: 100%
[11]
  Percent Control: 55%
[12]
  Percent Control: 77%
[13]
  Percent Control: 84%
[14]
  Percent Control: 86%
[15]
  Percent Control: 94%
[16]
  Percent Control: 81%
[17]
  Percent Control: 100%
[18]
  Percent Control: 82%
[19]
  Percent Control: 100%
[20]
  in vitro phosphorylation of S473 by MAPKAP kinase 2: impaired
[21]
  Percent Control: 85%
[22]
  effect on PDK1 activity: no effects
[23]
  Percent Control: 88%
[24]
  Percent Control: 76%
[25]
  Percent Control: 68%
[26]
  Percent Control: 92%
[27]
  Percent Control: 100%
[28]
  Percent Control: 95%
[29]
  Percent Control: 34%
